Like-named read-outs stand apart in the source and are kept apart here.
What was measured:
[1] = system: Rice (Oryza sativa) 'Cybonee'; settings: for Percent rice injury Cybonet: in vivo
Experimental: (§1) Rice (Oryza sativa) crop varieties (‘Cybonee’, ‘Jupiter’, and ‘Taggart’) and red rice (Oryza sativa) were planted in 6 inch plastic pots containing sterile top soil. Eight to ten seeds of each species were seeded at 12 o'clock, 3 o'clock, 6 o'clock or 9 o'clock around the pot. The pots were watered after planting. […] The test solutions were applied using a compressed air track spray chamber at 30 gallons per acre using a Teejet 8001E nozzle at 40 PSI, three replicates per test rate. After treatment, the pots were watered lightly and transferred to trays in a greenhouse. After the plants were two inches in height the trays were flooded with water and maintained as such for 14 days. The trays were emptied of water and the pots were maintained by regular watering for 4 more days. At 14, 21 and 28 days after treatment (DAT) the plants were evaluated versus untreated control pots containing the same rice and weeds using a scale of 0% (no control) to 100% (complete plant death).

[2] = system: Rice (Oryza sativa) 'Jupiter'; settings: for Percent rice injury Jupiter: in vivo
Experimental: as §1

[3] = system: Rice (Oryza sativa) 'Taggart'; settings: for Percent rice injury Taggart: in vivo
Experimental: as §1

red rice (Oryza sativa) [4] = assay: Pre-emergent evaluation on flooded rice, red rice control; type: in vivo; settings: 200 g ai/ha; for Percent red rice control: PRE, direct-seeded flooded rice
Experimental: as §1

[5] = system: Rice (Oryza sativa) 'Cybonee'; settings: for Percent rice injury Cybonet: Cybonee, Oryza sativa (rice), in vivo
Text: (§2) Rice (Oryza sativa) was planted in 6″ by 10″ fiber flats filled with sterile top soil. Five rows were made in each flat and the three rice varieties (′Cybonee, ‘Jupiter’, and ‘Taggart’) were planted in the center 3 rows and a row of red rice (Oryza sativa) was planted on either end of the flat. The flats were watered after planting. After application flats were placed in the greenhouse and lightly watered. […] The flats were moved to a greenhouse and watered and fertilized routinely. Studies were conducted using randomized complete block design with four replications. In both studies, visual percent red rice control and rice injury were recorded at 14, 21, and 28 days after treatment (DAT), using a scale of 0 (no control/injury) to 100 (complete plant death).

[6] = system: Rice (Oryza sativa) 'Jupiter'; settings: for Percent rice injury Jupiter: Oryza sativa (rice), in vivo
Text: as §2

[7] = system: Rice (Oryza sativa) 'Taggart'; settings: for Percent rice injury Taggart: Oryza sativa (rice), in vivo
Text: as §2

red rice (Oryza sativa) [8] = assay: Pre-emergent evaluation on dryland rice, red rice control; type: in vivo; settings: 200 g ai/ha; for Percent red rice control: PRE, direct-seeded dryland rice
Text: as §2

Structure (SMILES): CC1(C)CON(Cc2ccccc2Cl)C1=O [Clomazone, clomazone]
- Percent rice injury Cybonet ([1]; Cybonee, Oryza sativa (rice), 21 days after treatment): 58 A %
- Percent rice injury Cybonet ([1]; Cybonee, Oryza sativa (rice), 28 days after treatment): 49 AB %
- rice injury, 'Cybonee' ([1]; PRE flooded rice, 200 g ai/ha): injured
- Percent rice injury Cybonet [1]: 41 A %
- Percent rice injury Jupiter ([2]; Jupiter, Oryza sativa (rice), 21 days after treatment): 86 A %
- Percent rice injury Jupiter ([2]; Jupiter, Oryza sativa (rice), 28 days after treatment): 79 A %
- rice injury, 'Jupiter' ([2]; PRE flooded rice, 200 g ai/ha): injured
- Percent rice injury Jupiter [2]: 60 A %
- rice injury, 'Taggart' ([3]; PRE flooded rice, 200 g ai/ha): injured
- Percent rice injury Taggart ([3]; Taggart, Oryza sativa (rice), 21 days after treatment): 76 A %
- Percent rice injury Taggart ([3]; Taggart, Oryza sativa (rice), 28 days after treatment): 71 A %
- Percent rice injury Taggart [3]: 58 A %
- red rice control (red rice (Oryza sativa) [4]; PRE flooded rice): failed to control
- Percent red rice control (red rice (Oryza sativa) [4]; 14 DAT): 56 C %
- Percent red rice control (red rice (Oryza sativa) [4]; 21 DAT): 59 B %
- Percent red rice control (red rice (Oryza sativa) [4]; 28 DAT): 52 B %
- Percent rice injury Cybonet ([5]; 14 days after treatment): 35 A %
- Percent rice injury Cybonet ([5]; 21 days after treatment): 39 A %
- Percent rice injury Cybonet ([5]; 28 days after treatment): 43 A %
- rice injury, 'Cybonee' ([5]; PRE dryland rice, 200 g ai/ha): injured
- Percent rice injury Jupiter ([6]; 14 days after treatment): 31 A %
- Percent rice injury Jupiter ([6]; 21 days after treatment): 41 A %
- Percent rice injury Jupiter ([6]; 28 days after treatment): 44 A %
- rice injury, 'Jupiter' ([6]; PRE dryland rice, 200 g ai/ha): injured
- rice injury, 'Taggart' ([7]; PRE dryland rice, 200 g ai/ha): injured
- Percent rice injury Taggart ([7]; 14 days after treatment): 40 A %
- Percent rice injury Taggart ([7]; 21 days after treatment): 60 A %
- Percent rice injury Taggart ([7]; 28 days after treatment): 66 A %
- red rice control (red rice (Oryza sativa) [8]; PRE dryland rice): failed to control
- Percent red rice control (red rice (Oryza sativa) [8]; 14 DAT): 38 C %
- Percent red rice control (red rice (Oryza sativa) [8]; 21 DAT): 50 D %
- Percent red rice control (red rice (Oryza sativa) [8]; 28 DAT): 46 C %

— US9635854B2, “Controlling red rice with mesotrione” (FMC Corporation, priority 2014, dated 2017)
